Consider eight compounds from patent publication US6509344B1, “Indenoisoquinolines as antineoplastic agents” (The United States of America as represented by the …, priority 1998, dated 2003).

One data set has as its system HOP-62. Briefly: NCI human cancer cell line screen (COMPARE screening), Lung HOP-62. The format is cell-based. From the text:
(§1) Considering the diversity of cancer in terms of cell type, morphology, growth rate and other cellular characteristics, the U.S. National Cancer Institute (NCI) has developed a “disease-oriented” approach to anticancer activity screening (M. R. Boyd, in “Principle of Practice of Oncology” […]. Rosenberg (Eds.) Vol. 3, PPO Update, No. 10, 1989). This in vitro prescreening system is based on the measurement of anticancer cytotoxicity against human cancer cell line panels consisting of approximately 60 cell lines of major human cancers (including leukemia and slower growing tumor cells such as lung, colon, breast, skin, kidney, etc.) and is referred hereinafter as “COMPARE” screening. An important advantage of the new in vitro screening panels is the opportunity to facilitate identification of compounds that are selectively more cytotoxic to cells of certain types of cancers, thus increasing the ability to select compounds for further study with respect to specific diseases. The indenoisoquinolines were examined for antiproliferative activity against the human cancer cell lines in the National Cancer Institute screen (COMPARE screening), in which the activity of each compound was evaluated with approximately […] different cancer cell lines of diverse tumor origins.

In a further data set the test system is HCT-116. Briefly: NCI human cancer cell line screen (COMPARE screening), Colon HCT-116. The format is cell-based.
Text: as §1

A further data set has as its system UACC-62. Briefly: NCI human cancer cell line screen (COMPARE screening), Melanoma UACC-62. It counts as cell-based.
Text: as §1

Another data set relates to OVCAR-3. Briefly: NCI human cancer cell line screen (COMPARE screening), Ovarian OVCAR-3. The format is cell-based.
Text: as §1

The subject of another data set is DU-145. Briefly: NCI human cancer cell line screen (COMPARE screening), Prostate DU-145. The format is cell-based.
Text: as §1

A further data set has as its system MDA-MB-435. Briefly: NCI human cancer cell line screen (COMPARE screening), Breast MDA-MB-435. The format is cell-based.
Text: as §1

Data set [1] relates to approximately 55 different cancer cell lines of diverse tumor origins. Briefly: NCI screen mean graph midpoint over all cell lines tested. The format is cell-based, human. Particulars: for IC50: average GI50 for all cell lines tested (approximately 55), values outside test range taken as 10^-8 or 10^-4 molar, read-out: MGM (mean graph midpoint).
Text: as §1

Another data set concerns the target T1, topoisomerase I (Homo sapiens, UniProt P11387).
T1 sequence (P11387 1-765): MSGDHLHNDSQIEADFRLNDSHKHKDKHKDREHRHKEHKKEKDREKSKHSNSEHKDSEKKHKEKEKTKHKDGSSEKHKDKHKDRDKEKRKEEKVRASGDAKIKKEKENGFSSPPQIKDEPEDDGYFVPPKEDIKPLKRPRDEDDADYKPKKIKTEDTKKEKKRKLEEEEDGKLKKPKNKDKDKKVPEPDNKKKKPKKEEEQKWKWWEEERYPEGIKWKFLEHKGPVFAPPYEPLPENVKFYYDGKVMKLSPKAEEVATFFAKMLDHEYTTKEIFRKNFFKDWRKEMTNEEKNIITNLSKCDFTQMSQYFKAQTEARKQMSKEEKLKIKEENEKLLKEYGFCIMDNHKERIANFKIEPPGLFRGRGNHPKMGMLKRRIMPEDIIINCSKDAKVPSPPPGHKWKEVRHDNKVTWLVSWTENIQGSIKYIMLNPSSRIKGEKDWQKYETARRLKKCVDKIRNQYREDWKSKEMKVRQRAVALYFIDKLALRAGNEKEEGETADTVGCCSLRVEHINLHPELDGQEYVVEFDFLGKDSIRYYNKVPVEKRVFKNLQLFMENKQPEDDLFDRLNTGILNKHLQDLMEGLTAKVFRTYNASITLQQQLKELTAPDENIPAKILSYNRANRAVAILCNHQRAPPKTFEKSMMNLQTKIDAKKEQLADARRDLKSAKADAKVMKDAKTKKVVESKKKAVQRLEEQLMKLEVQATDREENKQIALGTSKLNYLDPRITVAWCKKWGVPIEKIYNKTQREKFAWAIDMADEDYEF
Briefly: Topoisomerase I-mediated DNA cleavage assay (3'-end-labeled 161 bp pBluescript SK(-) fragment). The format is biochemical. The note with it: relative to the activity of 1 μM camptothecin. The method, then: Topoisomerase I-Mediated DNA Cleavage Reactions Using 3′-End-labeled 161 BP Plasmid DNA
The 161 bp fragment from pBluescript SK(−) phagemid DNA (Stratagene, La Jolla, Calif.) was cleaved with the restriction endonuclease Pvu II and Hind III (New England Biolabs, Beverly, Mass.) in supplied NE buffer 2 (10 μL reactions) for 1 h at 37° C., separated by electrophoresis in a 1% agarose gel made in 1×TBE buffer. The 161 bp fragment was eluted from the gel slice (centrilutor by Amicon) and concentrated in a centricon 50 centrifugal concentrator (Amicon, Beverly, Mass.). Approximately 200 ng of the fragment was 3′-end-labeled at the Hind III site by fill-in reaction with [alpha-^32P]-dCTP and 0.5 mM dATP, dGTP, and dTTP, in React 2 buffer (50 mM Tris-HCl, pH 8.0, […], 50 mM NaCl) with 0.5 units of DNA polymerase I (Klenow fragment). Labeling reactions were followed by phenol-chloroform extraction and ethanol precipitation. The resulting 161 bp 3′-endlabeled DNA fragment was resuspended in water. Aliquots (approximately 50,000 dpm/reaction) were incubated with topoisomerase I at 30° C. for 15 min in the presence of the indicated drug. Reactions were terminated by adding 0.5% SDS. After ethanol precipitation, the samples were resuspended in loading buffer (80% formamide, 10 mM sodium hydroxide, 1 mM sodium EDTA, 0.1% xylene cyanol, and 0.1% bromophenol blue, pH 8.0), and separated in a denaturing gel (16% polyacrylamide, 7 M urea) run at 51° C. The gel was dried and visualized by using a Phosphoimager and ImageQuant software (Molecular Dynamics, Sunnyvale, Calif.).

The next data set deals with human topoisomerase II. Briefly: Topoisomerase II-mediated DNA cleavage assay (5'-end-labeled human c-myc DNA). The format is biochemical.
For another data set, the system named is SF-539. Briefly: NCI human cancer cell line screen (COMPARE screening), CNS SF-539. The format is cell-based.
Text: as §1

The test system of the next data set is SN12C. Briefly: NCI human cancer cell line screen (COMPARE screening), Renal SN12C. It counts as cell-based.
Text: as §1

Setting [2] is: Homo sapiens, HOP-62, concentration causing 50% growth inhibition, read-out: Cytotoxicity (G150 in μM) Lung HOP-62.
Setting [3] is: Homo sapiens, HCT-116, concentration causing 50% growth inhibition, read-out: Cytotoxicity (G150 in μM) Colon HCT-116.
The mark [4] stands for this setting: Homo sapiens, SF-539, concentration causing 50% growth inhibition, read-out: Cytotoxicity (G150 in μM) CNS SF-539.
[5] abbreviates: Homo sapiens, UACC-62, concentration causing 50% growth inhibition, read-out: Cytotoxicity (G150 in μM) Melanoma UACC-62.
The mark [6] stands for this setting: Homo sapiens, OVCAR-3, concentration causing 50% growth inhibition, read-out: Cytotoxicity (G150 in μM) Ovarian OVCAR-3.
Setting [7] is: Homo sapiens, SN12C, concentration causing 50% growth inhibition, read-out: Cytotoxicity (G150 in μM) Renal SN12C.
Setting [8] is: Homo sapiens, DU-145, concentration causing 50% growth inhibition, read-out: Cytotoxicity (G150 in μM) Prostate DU-145.
Setting [9] is: Homo sapiens, MDA-MB-435, concentration causing 50% growth inhibition, read-out: Cytotoxicity (G150 in μM) Breast MDA-MB-435.

Molecules are shown by their SMILES. Where two headings read alike, the source gives them in different places. Bounds are passed on as bounds.

Regarding `CCN1C(=O)c2cc(OC)c(OC)cc2[C@H]2C(=O)c3cc4c(cc3[C@H]21)OCO4` (relative stereo) [Compound 21, cis-6-Ethyl-5,6,12,13-tetrahydro-2,3-dimethoxy-5,11-dioxo-8,9-(methylene-dioxy)-11H-indeno[1,2-c]isoquinoline], the IC50 with HOP-62 turned out to be 0.29 µM; in the data set on HCT-116 it was 0.29 µM; in the data set with UACC-62, 0.18 µM; in the data set with OVCAR-3, 0.44 µM; in the data set with DU-145 it was 0.42 µM; in the data set on MDA-MB-435, 0.45 µM. In addition, in data set [1], the IC50 was determined as 0.81 µM. Further, in data set [1], the “cytotoxicity (MGM) relative to lead compound 1” value is on record as “lower MGM than the lead compound 1”. Moreover, at topoisomerase I, the “Top 1 Cleavage” value was “± (those compounds having less than 20% of the activity of 1 μM camptothecin)”. Moreover, the “induction of topoisomerase II cleavage complexes” value in the data set on human topoisomerase II is recorded as “no effect”.
Take `C=CCN1C(=O)c2cc(OC)c(OC)cc2[C@H]2C(=O)c3cc4c(cc3[C@H]21)OCO4` (relative stereo) [Compound 22, cis-6-Allyl-5,6,12,13-tetrahydro-2,3-dimethoxy-5,11-dioxo-8,9-(methylenedioxy)-(11H)indeno[1,2-c]isoquinoline]: the IC50 is 0.36 µM in the data set with HOP-62; 0.34 µM with HCT-116; 0.38 µM in the data set on UACC-62; 1.7 µM with OVCAR-3; 0.77 µM with DU-145; 1.4 µM in the data set with MDA-MB-435. Also, the IC50 in data set [1] is 0.98 µM. Besides, the “cytotoxicity (MGM) relative to lead compound 1” value in data set [1] is given as “lower MGM than the lead compound 1”. Also, the “Top 1 Cleavage” value on topoisomerase I was 0. The “induction of topoisomerase II cleavage complexes” value in the data set with human topoisomerase II is on record as “no effect”.
For `O=C1c2ccccc2-c2oc(=O)c3ccccc3c21` [Compound 2, benz[d]indeno[1,2-b]pyran-5,11-dione], the IC50 with HOP-62 (setting [2]), with HCT-116 (setting [3]), in the data set on SF-539 (setting [4]), in the data set on UACC-62 (setting [5]), in the data set with OVCAR-3 (setting [6]) and in the data set with SN12C (setting [7]) was greater than 100 µM throughout. In addition, the IC50 is greater than 100 µM in the data set with DU-145 (setting [8]), greater than 100 µM in the data set on MDA-MB-435 (setting [9]) and 85 µM in data set [1] (Homo sapiens). The “Top 1 Cleavage” value at topoisomerase I was 0.
As for `O=C1c2ccccc2-c2c1c1ccccc1c(=O)n2C1CC1` [Compound 5, 6-Cyclopropyl-5,6-dihydro-5,11-diketo-11H-indeno[1,2-c]isoquinoline], the IC50 in the data set on HOP-62 (setting [2]) was 61 µM; in the data set on HCT-116 (setting [3]), greater than 100 µM; with SF-539 (setting [4]), greater than 100 µM; in the data set on UACC-62 (setting [5]), 84 µM; in the data set on OVCAR-3 (setting [6]) it was greater than 100 µM; in the data set on SN12C (setting [7]) it was greater than 100 µM. The results for the IC50 (in the data set on DU-145 (setting [8]); with MDA-MB-435 (setting [9]); in data set [1] (Homo sapiens)) were greater than 100 µM, greater than 100 µM and 98 µM, respectively. Besides, the “Top 1 Cleavage” value on topoisomerase I is on record as 0.
Regarding `COc1ccc(Cn2c3c(c4cc(OC)c(OC)cc4c2=O)C(=O)c2cc4c(cc2-3)OCO4)cc1` [Compound 13f, 6-(p-Anisyl)-2,3-dimethoxy-5,6-dihydro-5,11-diketo-8,9-methylenedioxy-11H-indeno[1,2-c]isoquinoline], the IC50 in the data set with HOP-62 (setting [2]) was 20 µM; in the data set on HCT-116 (setting [3]), greater than 100 µM; with SF-539 (setting [4]), greater than 100 µM; with UACC-62 (setting [5]) it was greater than 100 µM; in the data set with OVCAR-3 (setting [6]), greater than 100 µM; in the data set on SN12C (setting [7]) it was greater than 100 µM. In addition, the figures for the IC50 (in the data set with DU-145 (setting [8]); in the data set with MDA-MB-435 (setting [9]); in [1] (Homo sapiens)) were 76 µM, greater than 100 µM and 70 µM, respectively. The “Top 1 Cleavage” value at topoisomerase I is 0.
Turning to `Cn1c2c(c3ccccc3c1=O)C(=O)c1cc(OCc3ccccc3)c(OCc3ccccc3)cc1-2` [Compound 13g, 8,9-Dibenzyloxy-5,6-dihydro-5,11-diketo-6-methyl-11H-indeno[1,2-c]isoquinoline], the IC50 in the data set on HOP-62 (setting [2]) is 72 µM; with HCT-116 (setting [3]), greater than 100 µM; with SF-539 (setting [4]), greater than 100 µM; in the data set on UACC-62 (setting [5]) it was 93 µM; in the data set on OVCAR-3 (setting [6]) it was greater than 100 µM; in the data set on SN12C (setting [7]), 88 µM. Besides, the IC50 is greater than 100 µM in the data set on DU-145 (setting [8]), greater than 100 µM in the data set with MDA-MB-435 (setting [9]) and 82 µM in data set [1] (Homo sapiens). On topoisomerase I, the “Top 1 Cleavage” value came out at 0.
As for `COc1cc2c3c(n(C)c(=O)c2cc1OC)-c1cc(OCc2ccccc2)c(OCc2ccccc2)cc1C3=O` [Compound 13h, 8,9-Dibenzyloxy-5,6-dihydro-5,11-diketo-6-methyl-2,3-dimethoxy-11H-indeno[1,2-c]isoquinoline], the IC50 in the data set on HOP-62 (setting [2]) was 46 µM; in the data set with HCT-116 (setting [3]), 80 µM; in the data set on SF-539 (setting [4]) it was 39 µM; in the data set on UACC-62 (setting [5]) it was greater than 100 µM; in the data set with OVCAR-3 (setting [6]) it was 58 µM; in the data set on SN12C (setting [7]), greater than 100 µM. For the same compound, the IC50 was greater than 100 µM in the data set with DU-145 (setting [8]), greater than 100 µM in the data set on MDA-MB-435 (setting [9]) and 72 µM in data set [1] (Homo sapiens). Also, the “Top 1 Cleavage” value at topoisomerase I is reported as 0.
Turning to `COc1cc2c3c(n(C)c(=O)c2cc1OC)-c1cc(OC)c(OC)c(OC)c1C3=O` [Compound 13i, 5,6-Dihydro-5,11-diketo-6methyl-2,3,8,9,10-pentamethoxy-11H-indeno[1,c]isoquinoline], the IC50 was greater than 100 µM with HOP-62; greater than 100 µM in the data set on HCT-116; greater than 100 µM with SF-539; 55 µM with UACC-62; greater than 100 µM in the data set with OVCAR-3; greater than 100 µM with SN12C. Also, the IC50 in the data set with DU-145 was greater than 100 µM; with MDA-MB-435, greater than 100 µM; in [1], 95 µM. Besides, at topoisomerase I, the “Top 1 Cleavage” value amounted to 0.
